Laboratory results: patent US20050153412A1, “Aldehyde dehydrogenase II” (priority 2002, published 2005)
Read-outs that look alike come from different tables or passages of the source.

Key:
Assay type in all cases: biochemical, Gluconobacter oxydans DSM No. 4025 (FERM BP-3812)
[1] = target: T1, SNDH II (aldehyde dehydrogenase) (Ketogulonicigenium vulgare, UniProt Q402A8); test: Substrate specificity of the purified enzyme, photometrical DCIP assay; conditions: for Relative activity compared with that for L-sorbosone (2 mM): at both pH 7.5 and 9.0, D-glucosone 2 mM, others 100 mM; for Product (deduced product of the oxidation of the substrate): substrates of Table 1A; for Relative activity (%): L-sorbosone and D-glucosone 2 mM, other substrates 100 mM, L-sorbosone = 100
T1 sequence (Q402A8 entry or part of it): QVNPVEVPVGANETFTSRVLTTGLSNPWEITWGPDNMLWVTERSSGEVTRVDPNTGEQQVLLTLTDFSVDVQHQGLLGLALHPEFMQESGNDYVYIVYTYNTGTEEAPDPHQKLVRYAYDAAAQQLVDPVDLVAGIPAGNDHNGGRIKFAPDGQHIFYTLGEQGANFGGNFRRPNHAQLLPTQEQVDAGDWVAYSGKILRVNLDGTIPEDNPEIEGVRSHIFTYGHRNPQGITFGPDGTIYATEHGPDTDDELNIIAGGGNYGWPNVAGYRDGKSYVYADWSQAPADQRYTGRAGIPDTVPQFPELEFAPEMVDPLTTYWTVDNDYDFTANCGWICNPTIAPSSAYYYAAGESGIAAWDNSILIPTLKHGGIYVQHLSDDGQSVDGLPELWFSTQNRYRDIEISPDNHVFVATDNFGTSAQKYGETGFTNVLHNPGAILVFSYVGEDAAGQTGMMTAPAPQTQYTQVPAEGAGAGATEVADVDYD
Description: (§1) The reaction mixture consisted of 0.1 mM DCIP, 1.0 mM PMS, 50 mM potassium phosphate buffer (pH 7.0), 1.0 μM PQQ, 2 to 100 mM substrate (L-sorbosone, D-glucosone, D-glucose, etc.) and enzyme solution in a final volume of 100 μl water, said reaction mixture was prepared just before the assay. The reaction was started at 25° C. with L-sorbosone, and the enzyme activity was measured as the initial reduction rate of DCIP at 600 nm. One unit of the enzyme activity was defined as the amount of the enzyme catalyzing the reduction of 1 μmol DCIP per minute. The extinction coefficient of DCIP at pH 7.0 was taken as 14.2 mM^−1. A reference cuvette contained all the above constituents except for L-sorbosone.
a) The substrate specificity of the enzyme was determined using the same enzyme assay method as described under 1b) above with the exception of using 100 mM potassium phosphate (pH 7.5) or 100 mM Tris-HCl (pH 9.0) as buffer. The relative activity of SNDH II for D-glucosone (2 mM), D-glucose (100 mM), and D-xylose (100 mM) was higher than that for L-sorbosone (2 mM) at both pH 7.5 and 9.0. However, the relative activity for L-sorbose (100 mM), D-sorbitol (100 mM), and L-gulono-γ-lactone (100 mM) was lower than 1% of that for L-sorbosone at both pH 7.5 and 9.0.

[2] = target: T1, SNDH II (aldehyde dehydrogenase); test: Electron acceptor suitability for conversion of L-sorbosone; conditions: conversion of L-sorbosone to vitamin C and/or 2-KGA
Text: This was affirmed by the failure of the enzyme to convert L-sorbosone to vitamin C and/or 2-KGA using oxygen as a possible electron acceptor. Furthermore, no oxygen consumption was detected in the reaction mixture as detected with a dissolved oxygen probe. […] However, other conventional electron acceptors can be utilized in conjunction with the enzyme of this invention. Preferred electron acceptors are phenazine methosulfate (PMS), 2,6-dichlorophenolindophenol (DCIP), ferricyanide and cytochrome c. There is no minimum amount of electron acceptors which must be present for at least some of the aldehyde substrate to be converted to its corresponding acid. However, the amount of substrate which can be oxidized depends on the amount of the particular electron acceptor and its electron accepting characteristics.

[3] = target: T1, SNDH II (aldehyde dehydrogenase); test: Effect of inhibitors and metals on L-sorbosone dehydrogenase activity, photometrical DCIP assay
Description: as §1
The effects of metal ions and inhibitors on the L-sorbosone dehydrogenase activity of the enzyme were examined by measuring the activity using the same assay method as described under 1b) above. Each compound solution was stirred into the basal reaction mixture and the reaction was started with the addition of the enzyme.
Each compound was added to the reaction mixture at a concentration of 1.0 mM, with the exception that the concentrations of EDTA, NaN3 and monoiodoacetate were 5.0 mM.

[4] = pH 7.5, 100 mM potassium phosphate
[5] = compound at 1.0 mM, None = 100.0

O=C[C@H](O)[C@@H](O)[C@H](O)CO [D-Xylose]
Relative activity compared with that for L-sorbosone (2 mM) [1]: higher
Product (deduced product of the oxidation of the substrate) [1]: D-Xylonic acid

O=CC(=O)[C@@H](O)[C@H](O)[C@H](O)CO [D-Glucosone]
Relative activity compared with that for L-sorbosone (2 mM) [1]: higher
Relative activity (%) [1, 4]: 483%
Product (deduced product of the oxidation of the substrate) [1]: D-iso-Ascorbic acid/2-Keto-D-gluconate

NC(=O)c1ccc[n+]([C@H]2O[C@@H](COP(=O)([O-])OP(=O)(O)OC[C@H]3O[C@@H](n4cnc5c(N)ncnc54)[C@H](OP(=O)(O)O)[C@@H]3O)[C@H](O)[C@@H]2O)c1 [NADP]
Suitability as electron acceptor [2]: not suitable electron acceptors

O=C1O[C@H]([C@@H](O)CO)[C@H](O)[C@@H]1O [L-Gulono-γ-lactone]
Relative activity (%) [1, 4]: <1%
Relative activity (%) ([1]; pH 9.0, 100 mM Tris-HCl): <1%

[Cl-].[Cl-].[Mg+2] [MgCl2]
Relative activity (%) [3, 5]: 88.5%

O=C[C@H](O)[C@@H](O)[C@H](O)[C@H](O)CO [D-Glucose]
Relative activity compared with that for L-sorbosone (2 mM) [1]: higher
Product (deduced product of the oxidation of the substrate) [1]: D-Gluconate

O=S(=O)([O-])[O-].O=S(=O)([O-])[O-].O=S(=O)([O-])[O-].[Fe+3].[Fe+3] [Fe2(SO4)3.xH2O]
Relative activity (%) [3, 5]: 73.2%
Effect on the enzyme activity ([3]; metal ions, 1.0 mM): inhibited

O=C(O)CN(CCN(CC(=O)O)CC(=O)O)CC(=O)O [EDTA]
Relative activity (%) [3]: 97.9%

O.O.O.O.O.O.O=S(=O)([O-])[O-].[Ni+2] [NiSO4.6H2O]
Relative activity (%) [3, 5]: 82.9%
Effect on the enzyme activity ([3]; metal ions, 1.0 mM): inhibited

O=C(O)CI [Monoiodoacetate]
Effect on the enzyme activity [3]: strongly inhibited
Relative activity (%) [3]: 34.7%

[Cl][Ti]([Cl])([Cl])[Cl] [TiCl4]
Relative activity (%) [3, 5]: 95.9%

O.O.[Ca+2].[Cl-].[Cl-] [CaCl2.2H2O]
Relative activity (%) [3, 5]: 94.7%

[Cl-].[Cl-].[Zn+2] [ZnCl2]
Relative activity (%) [3, 5]: 64.9%
Effect on the enzyme activity ([3]; metal ions, 1.0 mM): inhibited

NC(=O)c1ccc[n+]([C@@H]2O[C@H](COP(=O)([O-])OP(=O)(O)OC[C@H]3O[C@@H](n4cnc5c(N)ncnc54)[C@H](O)[C@@H]3O)[C@@H](O)[C@H]2O)c1 [NAD]
Suitability as electron acceptor [2]: not suitable electron acceptors

O.O.O.O.O.O.[Cl-].[Cl-].[Co+2] [CoCl2.6H2O]
Relative activity (%) [3, 5]: 60.8%
Effect on the enzyme activity ([3]; metal ions, 1.0 mM): inhibited

O=S(=O)([O-])[O-].[Cu+2] [CuSO4]
Relative activity (%) [3, 5]: <1%
Effect on the enzyme activity ([3]; metal ions, 1.0 mM): inhibited

[N-]=[N+]=[N-].[Na+] [NaN3]
Relative activity (%) ([3]; compound at 5.0 mM, None = 100.0): 98.4%

O=O [oxygen]
Suitability as electron acceptor [2]: does not work

OC[C@@H](O)[C@@H](O)[C@H](O)[C@@H](O)CO [D-Sorbitol]
Relative activity (%) [1, 4]: <1%
Relative activity (%) ([1]; pH 9.0, 100 mM Tris-HCl): <1%

O=C(CO)[C@@H](O)[C@H](O)[C@@H](O)CO [L-Sorbose]
Relative activity (%) [1, 4]: <1%
Relative activity (%) ([1]; pH 9.0, 100 mM Tris-HCl): <1%

O=CC(=O)[C@@H](O)[C@H](O)[C@@H](O)CO [L-Sorbosone]
Relative activity (%) [1, 4]: 100%
Relative activity (%) ([1]; pH 9.0, 100 mM Tris-HCl): 100%
Product (deduced product of the oxidation of the substrate) [1]: Vitamin C/2-KGA
